Results reported in ChEMBL document CHEMBL4196092, “Synthesis and biological evaluation of nannocystin analogues toward understanding the binding role of the (2R,3S)-Epoxide in nannocystin A” (Eur J Med Chem, 2018).
The source made the active and inactive calls. The calls are words filed in the database; no cut-off is given here.

Assays:
HepG2 = experiment: Antiproliferative activity against human HepG2 cells; format: functional, cell-based
PANC-1 = experiment: Antiproliferative activity against human PANC1 cells; format: functional, cell-based
HCT-116 = experiment: Antiproliferative activity against human HCT116 cells; format: functional, cell-based
Homo sapiens = species on record: Homo sapiens; experiment: Inhibition of eEF1alpha protein expression in human PANC1 cells by Western blot analysis; format: cell-based

Compound	IC50 (HepG2) [µM]	IC50 (PANC-1) [µM]	IC50 (HCT-116) [µM]	inhibition (Homo sapiens)
CC[C@H](C)[C@H]1C(=O)N[C@H](Cc2cc(Cl)c(O)c(Cl)c2)C(=O)N[C@@H](C(C)(C)O)C(=O)O[C@H](c2ccccc2)[C@H](C)/C=C/C=C(\C)[C@H](OC)C/C=C(\C)C(=O)N1C	0.00275	0.0113	0.0016	Active
CC[C@H](C)[C@H]1C(=O)N[C@H](Cc2ccc(O)c(Br)c2)C(=O)N[C@@H](C(C)(C)O)C(=O)O[C@H](c2ccccc2)[C@H](C)/C=C/C=C(\C)[C@H](OC)C[C@@H]2O[C@@]2(C)C(=O)N1C	0.00298	0.00961	0.00159	Active
CC[C@H](C)[C@H]1C(=O)N[C@H](Cc2cc(Cl)c(O)c(Cl)c2)C(=O)N[C@@H](C(C)C)C(=O)O[C@H](c2ccccc2)[C@H](C)/C=C/C=C(\C)[C@H](OC)C/C=C(\C)C(=O)N1C	0.104	0.137	0.0216	Active
CC[C@H](C)[C@H]1C(=O)N[C@H](Cc2ccc(O)c(Br)c2)C(=O)N[C@@H](C(C)(C)O)C(=O)O[C@H](c2ccccc2)[C@H](C)/C=C/C=C(\C)[C@H](OC)C/C=C(\C)C(=O)N1C	0.00521	0.0114	0.00388	Active
CC[C@H](C)[C@H]1C(=O)N[C@H](Cc2ccc(O)c(Br)c2)C(=O)N[C@@H](C(C)C)C(=O)O[C@H](c2ccccc2)[C@H](C)/C=C/C=C(\C)[C@H](OC)C/C=C(\C)C(=O)N1C	0.0537	0.0558	0.0132	Active
CC[C@H](C)[C@H]1C(=O)N[C@H](Cc2cc(Cl)c(O)c(Cl)c2)C(=O)N[C@@H](C(C)C)C(=O)O[C@H](c2ccccc2)[C@H](C)/C=C/C=C(\C)[C@H](OC)C[C@@H]2O[C@@]2(C)C(=O)N1C	0.00565	0.0155	0.00425	Active
CC[C@H](C)[C@H]1C(=O)N[C@H](Cc2ccc(O)c(Br)c2)C(=O)N[C@@H](C(C)C)C(=O)O[C@H](c2ccccc2)[C@H](C)/C=C/C=C(\C)[C@H](OC)C[C@@H]2O[C@@]2(C)C(=O)N1C	0.00684	0.0157	0.00393	Active
CC[C@H](C)[C@H]1C(=O)N[C@H](Cc2cc(Cl)c(O)c(Cl)c2)C(=O)N[C@@H](C(C)(C)O)C(=O)O[C@H](c2ccccc2)[C@H](C)/C=C/C=C(\C)[C@H](OC)C[C@@H]2O[C@@]2(C)C(=O)N1C	0.00336	0.0122	0.00211	Active
CC[C@H](C)[C@H]1C(=O)N[C@H](Cc2cc(Cl)c(O)c(Cl)c2)C(=O)N[C@@H](C(C)(C)O)C(=O)O[C@H](c2ccccc2)[C@H](C)/C=C/C=C(\C)[C@H](OC)C[C@H]2O[C@]2(C)C(=O)N1C	> 0.2	> 0.2	> 0.2	Active
CC[C@H](C)[C@H]1C(=O)N[C@H](Cc2ccc(O)c(Br)c2)C(=O)N[C@@H](C(C)(C)O)C(=O)O[C@H](c2ccccc2)[C@H](C)/C=C/C=C(\C)[C@H](OC)C[C@H]2O[C@]2(C)C(=O)N1C	> 0.2	> 0.2	> 0.2	Active
